Assay results: patent publication EP4772505A1, “COMPOUND FOR DEGRADING ANDROGEN RECEPTOR AND MEDICAL USE THEREOF” (Ubix Therapeutics, Inc., priority 2023, dated 2025)
Positions count from the first letter of the chain named. Where two headings read alike, the source gives them in different places.

Tests used:
Androgen Receptor (AR) [1] = target: T1, Androgen Receptor (AR) (Homo sapiens, UniProt P10275); assay: Measurement of AR protein degradation in VCaP cells by Western blotting; assay type: cell-based; design: endogenous in cells; host or cells: VCaP; conditions: VCaP, 20 h, read-out: AR degradation in VCaP cells (%)
T1 sequence (P10275 1-920): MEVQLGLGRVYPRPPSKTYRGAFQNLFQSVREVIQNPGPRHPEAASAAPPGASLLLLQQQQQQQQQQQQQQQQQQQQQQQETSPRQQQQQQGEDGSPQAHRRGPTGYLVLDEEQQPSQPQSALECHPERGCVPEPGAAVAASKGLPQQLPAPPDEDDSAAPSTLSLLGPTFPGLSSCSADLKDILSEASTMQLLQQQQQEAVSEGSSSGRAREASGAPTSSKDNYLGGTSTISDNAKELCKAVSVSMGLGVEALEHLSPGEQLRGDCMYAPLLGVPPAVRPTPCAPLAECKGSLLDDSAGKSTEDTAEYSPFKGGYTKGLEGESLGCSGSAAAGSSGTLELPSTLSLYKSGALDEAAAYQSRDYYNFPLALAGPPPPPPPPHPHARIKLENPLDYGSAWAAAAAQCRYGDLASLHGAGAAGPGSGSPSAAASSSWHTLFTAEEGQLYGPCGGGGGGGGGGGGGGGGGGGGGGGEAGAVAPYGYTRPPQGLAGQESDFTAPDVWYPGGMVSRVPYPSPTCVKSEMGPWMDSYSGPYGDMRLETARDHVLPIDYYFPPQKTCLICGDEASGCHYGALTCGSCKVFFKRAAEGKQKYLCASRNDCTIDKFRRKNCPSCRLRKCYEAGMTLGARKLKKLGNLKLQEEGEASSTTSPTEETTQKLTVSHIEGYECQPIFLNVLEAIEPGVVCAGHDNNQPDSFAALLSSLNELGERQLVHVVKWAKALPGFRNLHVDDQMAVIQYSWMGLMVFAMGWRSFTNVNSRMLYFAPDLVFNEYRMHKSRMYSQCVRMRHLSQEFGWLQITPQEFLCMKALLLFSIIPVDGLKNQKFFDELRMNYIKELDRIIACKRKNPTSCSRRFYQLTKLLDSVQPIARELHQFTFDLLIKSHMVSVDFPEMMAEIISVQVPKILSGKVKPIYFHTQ
Protocol: (§1) The amount of AR protein present in LNCaP or VCaP cells was measured after treating them with the synthesized compound. The amount of AR protein was measured using Western blotting. The protocol for the experiments using LNCaP or VCaP cells was as follows.
(§2) [Culture] LNCaP cells were resuspended in RPMI1640 medium + HEPES (Hyclone, SH30255.01), 10% FBS (Hyclone, SV30207.02), and 1% Penicillin-streptomycin (Welgene, LS 202-02). 3 x 10^5 cells/mL were seeded in 12-well plates (1 mL per well) and cultured for 3 days. VCaP cells were resuspended in IMDM MEDIUM (Hyclone, SH30228.01), 20% FBS (Hyclone, SV30207.02), and 1% Penicillin-streptomycin (Welgene, LS 202-02), seeded at 9 x 10^5/mL in 1 mL per 12-well plate, and cultured for 3 days.
(§3) [Compound Treatment] 10 µL of 100x stock (e.g., 0.1, 1, 10 µM) compound solution at the final compound treatment concentration (e.g., 0.001, 0.01, 0.1 µM) was added to each well in 1 mL media, and cells were harvested after 20 hours. For DC50 measurement, 100x stock (0.01, 0.1, 1, 10, 100, 1000 µM) compound solutions at the final compound treatment concentration (0.0001, 0.001, 0.01, 0.1, 1, 10 µM) were used.
(§4) [Cell lysis] The cell pellet was suspended using 1% SDS lysis buffer (50 mM Tris, 1 mM EDTA, 1% SDS, pH 8.0, 0.5 mM PMSF, 1x Protease/Phosphatase inhibitor Cocktail (Cell Signaling Technology, 5872S)), and sonication (70% AMP, 10 cycles (30 sec ON/59 sec OFF)) was performed. After centrifugation at 4°C and 20,000 g for 20 minutes, the cell lysate was obtained and transferred to a new tube.
(§5) [Protein Quantification] A BCA protein assay (SMART™ BCA Protein Assay Kit, iNtRON Biotechnology, 21071) was performed using a 96-well microplate. 5 µL of cell lysate and 5 µL of 1% SDS lysis buffer were added to each well of the 96-well plate, followed by an additional 200 µL of BCA reagent (Reagent A: Reagent B = 50:1). The wells were incubated at 37°C for 30 minutes and cooled to room temperature for 10 minutes. After shaking for 10 seconds, the absorbance was measured at a wavelength of 562 nm. The unknown protein concentration was determined using a BSA standard curve (0, 0.125, 0.25, 0.5, 1, 2 mg/mL). Western blotting samples were prepared by mixing cell lysate, 1% SDS lysis buffer, 4x NuPAGE™ LDS Sample buffer (Invitrogen, NP0008), and 10X NuPAGE™ Sample Reducing Agent (Invitrogen, NP0009) and boiling at 70°C for 10 minutes.
(§6) [Electrophoresis] 10 µg of protein sample was loaded into each well of a NuPAGE™ 4 to 12%, Bis-Tris, 1.0 mm Mini Protein Gel, 15-well, 17-well, or 26-well (Invitrogen, NP0323BOX, NP0329BOX, or WG1403BOX) and electrophoresed for 40 minutes using NuPAGE™MES SDS Running Buffer (Invitrogen, NP0002) at 200 V (constant V).
(§7) [Transfer] Transfer was performed for 15 or 18 minutes using the electrophoresed gel and the Trans-Blot® Turbo™ Transfer Starter System (Bio-RAD, #17001918, Mini Nitrocellulose) at 1.3 A (constant A) and 25 V (limit V). To confirm protein transfer, 15 mL of Ponceau S solution (Sigma, P7170-1L) was used to stain for 1 minute, and then washed to check the degree of transfer.
(§8) [Blocking] The membrane for AR and GAPDH detection was blocked with 5% skim milk/0.2% TBST (Skim milk: BD, 232100/ 20X TBS: Biosesang, TR2008-100-00/ 10% Tween 20 Solution: Bio-RAD, #161-0781) for 45 minutes.
(§9) [Antibodies and Detection] Primary AR antibody (Androgen Receptor: CST, 5153S) was mixed with 5% skim milk/0.2% TBST at a ratio of 1:1,000 and reacted at room temperature for 3 hours or at 4°C overnight. Primary GAPDH antibody (CST, 2118S) was mixed with 5% skim milk/0.2% TBST at a ratio of 1:2,000 and reacted at room temperature for 3 hours or at 4°C overnight. Afterwards, TBST (0.2% Tween 20) was used for washing three times every 5 minutes. Secondary antibody to AR antibody, Anti-rabbit IgG, HRP-linked Antibody (CST, 7074S), was mixed with 5% skim milk/0.2% TBST at a ratio of 1:5,000 and reacted at room temperature for 45 minutes. […]

Androgen Receptor (AR) [2] = target: T2, Androgen Receptor (AR) (Homo sapiens, UniProt P10275, T878A); assay: Measurement of AR protein degradation in LNCaP cells by Western blotting; assay type: cell-based; conditions: read-out: AR degradation in LNCaP cells (%)
T2 construct: endogenous in cells; host or cells: LNCaP
T2 sequence (P10275 1-920 T878A): T1 sequence (P10275 1-920) with T878A
Protocol: as §1, §2, §3, §4, §5, §6, §7, §8, §9

| Structure (SMILES) | Dmax at 0.01 µM (Androgen Receptor (AR) [1]) | Dmax at 0.1 µM (Androgen Receptor (AR) [1]) | Dmax at 0.01 µM (Androgen Receptor (AR) [2]; LNCaP, 20 h) | Dmax at 0.1 µM (Androgen Receptor (AR) [2]; LNCaP, 20 h) | also measured |
| --- | --- | --- | --- | --- | --- |
| N#Cc1ccc(N2CCC(C(=O)Nc3ccc(OC4CCN(CC5CCN(c6ccc(NC7CCC(=O)NC7=O)cc6F)CC5)CC4)nn3)CC2)c(F)c1C(F)(F)F (stereo not drawn) [Example 14, 1-(4-cyano-2-fluoro-3-(trifluoromethyl)phenyl)-N-(6-((1-((1-(4-((2,6-dioxopiperidin-3-yl)amino)-2-fluorophenyl)piperidin-4-yl)methyl)piperidin-4-yl)oxy)pyridazin-3-yl)piperidine-4-carboxamide] | 87% | 95% | – | – | – |
| N#Cc1ccc(N2CCC(C(=O)Nc3ccc(OC4CCN(C5CCN(c6ccc(NC7CCC(=O)NC7=O)cc6F)CC5)CC4)cn3)CC2)cc1C(F)(F)F (stereo not drawn) [Example 4, 1-(4-cyano-3-(trifluoromethyl)phenyl)-N-(5-((1'-(4-((2,6-dioxopiperidin-3-yl)amino)-2-fluorophenyl)-[1,4'-bipiperidin]-4-yl)oxy)pyridin-2-yl)piperidine-4-carboxamide] | – | – | 76% | 93% | – |
| N#Cc1ccc(N2CCC(C(=O)Nc3ccc(OC4CCN(CC5CCN(c6ccc(NC7CCC(=O)NC7=O)cc6C(F)(F)F)CC5)CC4)cn3)CC2)cc1C(F)(F)F (stereo not drawn) [Example 18, 1-(4-cyano-3-(trifluoromethyl)phenyl)-N-(5-((1-((1-(4-((2,6-dioxopiperidin-3-yl)amino)-2-(trifluoromethyl)phenyl)piperidin-4-yl)methyl)piperidin-4-yl)oxy)pyridin-2-yl)piperidine-4-carboxamide] | – | – | 51% | 98% | – |
| N#Cc1ccc(N2CCN(C(=O)Nc3ccc(OC4CCN(CC5CCN(c6ccc(NC7CCC(=O)NC7=O)cc6F)CC5)CC4)cn3)CC2)cc1C(F)(F)F (stereo not drawn) [Example 6, 4-(4-cyano-3-(trifluoromethyl)phenyl)-N-(5-((1-((1-(4-((2,6-dioxopiperidin-3-yl)amino)-2-fluorophenyl)piperidin-4-yl)methyl)piperidin-4-yl)oxy)pyridin-2-yl)piperazine-1-carboxamide] | – | – | 84% | 99% | – |
| N#Cc1ccc(N2CCC(C(=O)Nc3ccc(OC4CCN(CC5CCN(c6ccc(NC7CCC(=O)NC7=O)cc6F)CC5)CC4)cn3)CC2)c(F)c1C(F)(F)F (stereo not drawn) [Example 11, 1-(4-cyano-2-fluoro-3-(trifluoromethyl)phenyl)-N-(5-((1-((1-(4-((2,6-dioxopiperidin-3-yl)amino)-2-fluorophenyl)piperidin-4-yl)methyl)piperidin-4-yl)oxy)pyridin-2-yl)piperidine-4-carboxamide] | 89% | 99% | – | – | – |
| N#Cc1ncc(N2CCC(C(=O)Nc3ccc(OC4CCN(CC5CCN(c6ccc(NC7CCC(=O)NC7=O)cc6F)CC5)CC4)cn3)CC2)cc1C(F)(F)F (stereo not drawn) [Example 5, 1-(6-cyano-5-(trifluoromethyl)pyridin-3-yl)-N-(5-((1-((1-(4-((2,6-dioxopiperidin-3-yl)amino)-2-fluorophenyl)piperidin-4-yl)methyl)piperidin-4-yl)oxy)pyridin-2-yl)piperidine-4-carboxamide] | – | – | – | – | Dmax at 0.01 µM (Androgen Receptor (AR) [2]; 10 nM compound, 20 hours, LNCaP cells): 63%; Dmax at 0.1 µM (Androgen Receptor (AR) [2]; 100 nM compound, 20 hours, LNCaP cells): 97% |
